Assay results from patent EP4596574A1, “GLP-1/GCG/GIP TRIPLE-RECEPTOR AGONIST AND USE THEREOF” (Sunshine Lake Pharma Co., Ltd., priority 2022, dated 2024).

How the values were obtained:
Type in all cases: cell-based
GLP-1R = biological target: T1, GLP-1R (Homo sapiens, UniProt P43220); experiment: In vitro cell activity, cAMP production in HEK293 cells expressing GLP-1R; details: HEK293-GLP-1R cells, cAMP; read-out: GLP-1R (EC50)
T1 construct: expressed in transfected cells; host or cells: HEK293 (HEK293-GLP-1R)
Description: (§1) After they were completely thawed within 1.5 minutes, the cells were added dropwise into a 15 mL centrifuge tube containing 8 mL of warm culture medium in a clean bench. The tubes were centrifuged at 900 rpm for 5 minutes, the supernatant was discarded, and the cells were resuspended in 1 mL of complete culture medium (by pipetting 15 times). 20 µL of the suspension was immediately taken and mixed with an equal volume of trypan blue. 20 µL was taken to count the number of live cells, and the cells were diluted to 4×10^5 cells/mL with complete culture medium. • 4) The 384-well plate was divided into GLP-1R cell, GCGR cell and GIPR cell areas. The cell suspension was added to the wells of the corresponding area at 5 µL per well using a 12-channel variable-channel adjustable dispenser. […] Then, the diluted cAMP-d2 working solution and anti-cAMP-crytate working solution were mixed evenly in a ratio of 1:1, and 10 µL was added to each well of the sample group. The wells were covered with white lids and placed at room temperature in the dark for 1 hour or at 4 °C overnight. • 6) The fluorescence values at 665 nm and 620 nm were detected in a multifunctional microplate reader. In GraphPad Prism 6, the signal ratio and sample concentration were nonlinearly fitted using a four-parameter equation to obtain the EC50 value.

GCGR = biological target: T2, GCGR (Homo sapiens, UniProt P47871); experiment: In vitro cell activity, cAMP production in HEK293 cells expressing GCGR; details: HEK293-GCGR cells, cAMP; read-out: GCGR (EC50)
T2 construct: expressed in transfected cells; host or cells: HEK293 (HEK293-GCGR)
Description: as §1

GIPR = biological target: T3, GIPR (Homo sapiens, UniProt P48546); experiment: In vitro cell activity, cAMP production in HEK293 cells expressing GIPR; details: HEK293-GIPR cells, cAMP; read-out: GIPR (EC50)
T3 construct: expressed in transfected cells; host or cells: HEK293 (HEK293-GIPR)
T3 sequence (P48546 22-466): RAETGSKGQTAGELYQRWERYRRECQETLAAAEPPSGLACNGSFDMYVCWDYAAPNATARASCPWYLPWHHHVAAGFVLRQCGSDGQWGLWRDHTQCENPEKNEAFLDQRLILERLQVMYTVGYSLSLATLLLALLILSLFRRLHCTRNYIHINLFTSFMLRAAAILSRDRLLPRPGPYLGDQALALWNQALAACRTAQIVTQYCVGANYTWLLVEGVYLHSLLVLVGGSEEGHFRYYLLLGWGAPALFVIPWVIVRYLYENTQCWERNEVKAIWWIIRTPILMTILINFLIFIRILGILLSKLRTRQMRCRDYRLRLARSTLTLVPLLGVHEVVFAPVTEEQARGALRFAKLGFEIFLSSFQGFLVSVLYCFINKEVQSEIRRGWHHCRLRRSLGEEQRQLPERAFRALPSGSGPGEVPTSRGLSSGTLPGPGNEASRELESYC
Description: as §1, with “The wells were covered with white lids and placed at room temperature in the dark for 1 hour or at 4 °C overnight. • 6) The fluorescence values at 665 nm and 620 nm were detected in a multifunctional microplate reader.” left out

T2 sequence (P47871 26-477, species assumed): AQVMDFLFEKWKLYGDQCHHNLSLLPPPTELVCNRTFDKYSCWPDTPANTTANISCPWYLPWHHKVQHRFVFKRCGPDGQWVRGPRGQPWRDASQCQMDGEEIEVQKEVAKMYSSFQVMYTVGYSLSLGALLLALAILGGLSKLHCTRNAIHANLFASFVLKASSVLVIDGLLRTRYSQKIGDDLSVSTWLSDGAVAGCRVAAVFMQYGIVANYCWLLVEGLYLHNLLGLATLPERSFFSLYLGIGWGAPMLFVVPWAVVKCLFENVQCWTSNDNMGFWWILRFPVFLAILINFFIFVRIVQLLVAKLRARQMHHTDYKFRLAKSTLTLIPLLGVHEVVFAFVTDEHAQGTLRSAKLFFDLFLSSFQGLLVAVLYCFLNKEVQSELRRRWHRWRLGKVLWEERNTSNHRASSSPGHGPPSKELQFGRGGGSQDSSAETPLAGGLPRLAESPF
T1 sequence (P43220 24-463, species assumed): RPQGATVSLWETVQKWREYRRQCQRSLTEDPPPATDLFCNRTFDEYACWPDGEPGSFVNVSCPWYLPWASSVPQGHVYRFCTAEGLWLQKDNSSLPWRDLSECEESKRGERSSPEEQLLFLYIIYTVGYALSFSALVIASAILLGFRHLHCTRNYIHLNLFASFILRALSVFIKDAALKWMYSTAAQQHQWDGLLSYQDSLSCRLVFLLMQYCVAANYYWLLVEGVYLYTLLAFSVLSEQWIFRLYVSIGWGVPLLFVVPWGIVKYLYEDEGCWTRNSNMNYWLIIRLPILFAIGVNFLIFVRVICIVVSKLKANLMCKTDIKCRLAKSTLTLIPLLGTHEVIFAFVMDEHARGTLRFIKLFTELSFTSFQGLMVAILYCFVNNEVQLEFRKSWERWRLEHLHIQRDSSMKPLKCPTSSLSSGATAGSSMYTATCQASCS

| SMILES | EC50 (GLP-1R) [nM] | EC50 (GCGR) [nM] | EC50 (GIPR) [nM] |
| --- | --- | --- | --- |
| CC[C@H](C)[C@H](NC(=O)[C@H](CC(C)C)NC(=O)[C@H](Cc1c[nH]c2ccccc12)NC(=O)[C@H](CCC(N)=O)NC(=O)[C@@H](NC(=O)[C@H](Cc1ccccc1)NC(=O)[C@H](C)NC(=O)[C@H](CCC(N)=O)NC(=O)[C@H](CCC(N)=O)NC(=O)[C@H](C)NC(=O)[C@H](CCCCNC(=O)COCCOCCNC(=O)CC[C@H](NC(=O)CCCCCCCCCCCCCCCCCCC(=O)O)C(=O)O)NC(=O)[C@H](CCC(=O)O)NC(=O)[C@H](CC(=O)O)NC(=O)[C@H](CC(C)C)NC(=O)[C@H](CC(C)C)NC(=O)[C@@H](NC(=O)[C@H](CO)NC(=O)[C@H](Cc1ccc(O)cc1)NC(=O)[C@H](CC(=O)O)NC(=O)[C@H](CO)NC(=O)[C@@H](NC(=O)[C@](C)(Cc1ccccc1F)NC(=O)[C@@H](NC(=O)CNC(=O)[C@H](CCC(N)=O)NC(=O)C(C)(C)NC(=O)[C@@H](N)Cc1ccc(O)cc1)[C@@H](C)O)[C@@H](C)O)[C@@H](C)CC)C(C)C)C(=O)N[C@@H](C)C(=O)NCC(=O)NCC(=O)N1CCC[C@H]1C(=O)N[C@@H](CO)C(=O)N[C@@H](CO)C(=O)NCC(=O)N[C@@H](C)C(=O)N1CCC[C@H]1C(=O)N1CCC[C@H]1C(=O)N1CCC[C@H]1C(=O)N[C@@H](CO)C(=O)O [HEC-PT92] | 0.104 | 1.85 | 0.0779 |
| CC[C@H](C)[C@H](NC(=O)[C@H](Cc1ccccc1)NC(=O)[C@H](C)NC(=O)[C@H](CCCCNC(=O)COCCOCCNC(=O)CC[C@H](NC(=O)CCCCCCCCCCCCCCCCC(=O)O)C(=O)O)NC(=O)[C@H](CCC(N)=O)NC(=O)[C@H](CCCNC(=N)N)NC(=O)[C@@H](NC(=O)[C@H](CCCNC(=N)N)NC(=O)[C@H](CC(=O)O)NC(=O)[C@H](CC(C)C)NC(=O)[C@H](CC(C)C)NC(=O)[C@@H](NC(=O)[C@H](CO)NC(=O)[C@H](Cc1ccc(O)cc1)NC(=O)[C@H](CC(=O)O)NC(=O)[C@H](CO)NC(=O)[C@@H](NC(=O)[C@](C)(Cc1ccccc1F)NC(=O)[C@@H](NC(=O)CNC(=O)[C@H](CCC(N)=O)NC(=O)C(C)(C)NC(=O)[C@@H](N)Cc1ccc(O)cc1)[C@@H](C)O)[C@@H](C)O)[C@@H](C)CC)[C@@H](C)CC)C(=O)N[C@@H](CCC(=O)O)C(=O)N[C@@H](Cc1ccc(O)cc1)C(=O)N[C@@H](CC(C)C)C(=O)N[C@@H](CC(C)C)C(=O)N[C@@H](CCC(=O)O)C(=O)NCC(=O)NCC(=O)N1CCC[C@H]1C(=O)N[C@@H](CO)C(=O)N[C@@H](CO)C(=O)NCC(=O)N[C@@H](C)C(=O)N1CCC[C@H]1C(=O)N1CCC[C@H]1C(=O)N1CCC[C@H]1C(=O)N[C@@H](CO)C(=O)O [HEC-PT126] | 0.861 | 0.0319 | 0.0589 |
| CC[C@H](C)[C@H](NC(=O)[C@H](Cc1ccccc1)NC(=O)[C@H](C)NC(=O)[C@H](CCC(N)=O)NC(=O)[C@H](CCC(N)=O)NC(=O)[C@H](CCCNC(=N)N)NC(=O)[C@H](CCCCNC(=O)COCCOCCNC(=O)CC[C@H](NC(=O)CCCCCCCCCCCCCCCCC(=O)O)C(=O)O)NC(=O)[C@H](CCC(=O)O)NC(=O)[C@H](CC(=O)O)NC(=O)[C@H](CC(C)C)NC(=O)[C@H](CC(C)C)NC(=O)[C@@H](NC(=O)[C@H](CO)NC(=O)[C@H](Cc1ccc(O)cc1)NC(=O)[C@H](CC(=O)O)NC(=O)[C@H](CO)NC(=O)[C@@H](NC(=O)[C@](C)(Cc1ccccc1F)NC(=O)[C@@H](NC(=O)CNC(=O)[C@H](Cc1c[nH]cn1)NC(=O)C(C)(C)NC(=O)[C@@H](N)Cc1ccc(O)cc1)[C@@H](C)O)[C@@H](C)O)[C@@H](C)CC)C(=O)N[C@@H](CCC(=O)O)C(=O)N[C@@H](Cc1ccc(O)cc1)C(=O)N[C@@H](CC(C)C)C(=O)N[C@@H](CC(C)C)C(=O)N[C@@H](CCC(=O)O)C(=O)NCC(=O)NCC(=O)N1CCC[C@H]1C(=O)N[C@@H](CO)C(=O)N[C@@H](CO)C(=O)NCC(=O)N[C@@H](C)C(=O)N1CCC[C@H]1C(=O)N1CCC[C@H]1C(=O)N1CCC[C@H]1C(=O)N[C@@H](CO)C(=O)O [HEC-PT118] | 1.2 | 0.221 | 0.128 |
| CC[C@H](C)[C@H](NC(=O)[C@H](Cc1ccccc1)NC(=O)[C@H](C)NC(=O)[C@H](CCCNC(=N)N)NC(=O)[C@H](CCC(N)=O)NC(=O)[C@H](CCCNC(=N)N)NC(=O)[C@H](CCCCNC(=O)COCCOCCNC(=O)CC[C@H](NC(=O)CCCCCCCCCCCCCCCCC(=O)O)C(=O)O)NC(=O)[C@H](CCC(=O)O)NC(=O)[C@H](CC(=O)O)NC(=O)[C@H](CC(C)C)NC(=O)[C@H](CC(C)C)NC(=O)[C@@H](NC(=O)[C@H](CO)NC(=O)[C@H](Cc1ccc(O)cc1)NC(=O)[C@H](CC(=O)O)NC(=O)[C@H](CO)NC(=O)[C@@H](NC(=O)[C@](C)(Cc1ccccc1F)NC(=O)[C@@H](NC(=O)CNC(=O)[C@H](Cc1c[nH]cn1)NC(=O)C(C)(C)NC(=O)[C@@H](N)Cc1ccc(O)cc1)[C@@H](C)O)[C@@H](C)O)[C@@H](C)CC)C(=O)N[C@@H](CCC(=O)O)C(=O)N[C@@H](Cc1ccc(O)cc1)C(=O)N[C@@H](CC(C)C)C(=O)N[C@@H](CC(C)C)C(=O)N[C@@H](CCC(=O)O)C(=O)NCC(=O)NCC(=O)N1CCC[C@H]1C(=O)N[C@@H](CO)C(=O)N[C@@H](CO)C(=O)NCC(=O)N[C@@H](C)C(=O)N1CCC[C@H]1C(=O)N1CCC[C@H]1C(=O)N1CCC[C@H]1C(=O)N[C@@H](CO)C(=O)O [HEC-PT120] | 0.406 | 0.2 | 0.188 |
| CC[C@H](C)[C@H](NC(=O)[C@H](Cc1ccccc1)NC(=O)[C@H](C)NC(=O)[C@H](CCC(N)=O)NC(=O)[C@H](CCC(N)=O)NC(=O)[C@H](C)NC(=O)[C@H](CCCCNC(=O)COCCOCCNC(=O)CC[C@H](NC(=O)CCCCCCCCCCCCCCCCCCC(=O)O)C(=O)O)NC(=O)[C@H](CCC(=O)O)NC(=O)[C@H](CC(=O)O)NC(=O)[C@H](CC(C)C)NC(=O)[C@H](CC(C)C)NC(=O)[C@@H](NC(=O)[C@H](CO)NC(=O)[C@H](Cc1ccc(O)cc1)NC(=O)[C@H](CC(=O)O)NC(=O)[C@H](CO)NC(=O)[C@@H](NC(=O)[C@](C)(Cc1ccccc1F)NC(=O)[C@@H](NC(=O)CNC(=O)[C@H](Cc1c[nH]cn1)NC(=O)C(C)(C)NC(=O)[C@@H](N)Cc1ccc(O)cc1)[C@@H](C)O)[C@@H](C)O)[C@@H](C)CC)C(=O)N[C@@H](CCC(=O)O)C(=O)N[C@@H](Cc1ccc(O)cc1)C(=O)N[C@@H](CC(C)C)C(=O)N[C@@H](CC(C)C)C(=O)N[C@@H](C)C(=O)NCC(=O)NCC(=O)N1CCC[C@H]1C(=O)N[C@@H](CO)C(=O)N[C@@H](CO)C(=O)NCC(=O)N[C@@H](C)C(=O)N1CCC[C@H]1C(=O)N1CCC[C@H]1C(=O)N1CCC[C@H]1C(=O)N[C@@H](CO)C(=O)O [HEC-PT81] | 0.409 | 0.382 | 0.132 |
